Paper PMC12279208, “Targeted Penetrating Motif Engineering of BH3 Mimetic: Harnessing Non‐Canonical Amino Acids for Coinhibition of MCL‐1 and BCL‐xL in Acute Myeloid Leukemia” (Advanced Science, 2025)
Square brackets hold non-standard residues; d marks the D form. Peptide text beside a SMILES is read from it. Bpa = N[C@@H](Cc1ccc(C(=O)c2ccccc2)cc1)C(=O)O; Phe(4-Me) = Cc1ccc(C[C@H](N)C(=O)O)cc1; Met(O2) = CS(=O)(=O)CC[C@H](N)C(=O)O; Chg = N[C@H](C(=O)O)C1CCCCC1

Columns and labels:
[1] = molecular target: T1, MCL-1 (Homo sapiens, UniProt Q07820); assay: Cell-free TR-FRET inhibition of MCL-1 binding to its peptide ligand; conditions: 3 h at room temperature, 0.25-1000 nM, n = 4
T1 construct: purchased BPS Biosciences 79506
Procedure: (§1) The inhibition of MCL-1 and BCL-xL binding to their respective ligands was quantified using time-resolved fluorescence resonance energy transfer (TR-FRET) assay kits (BPS Biosciences, Catalog Nos. 79506 and 50223). […] All samples and controls were run in quadruplicate, ensuring a final DMSO concentration below 0.1%. Selected hit compounds were tested at various concentrations: 0.25, 0.5, 1, 2, 4, 8, 16, 32, 64, 125, 500, and 1000 nM. The test assay components were prepared as follows: A 3× MCL TR-FRET assay buffer was diluted with two parts distilled water to create a 1× MCL TR-FRET assay buffer. The anti-His terbium-labeled donor and dye-labeled acceptor were diluted 200-fold in 1× MCL TR-FRET assay buffer. Each well received 5 μL of the anti-His terbium-labeled donor and dye-labeled acceptor mixture. In the negative control wells, 2 μL of inhibitor buffer and 1× MCL-1 TR-FRET assay buffer were added. For the positive control wells, 2 μL of inhibitor buffer and the MCL-1 peptide ligand were added. Subsequently, 2 μL of the diluted test inhibitor solution and the MCL-1 peptide ligand were added to the test inhibitor wells. Finally, 3 μL of diluted MCL-1 protein solution was added to each well, and the plate was incubated at room temperature for 3 hours.
(§2) TR-FRET Ratio=Emission at 665 nmEmission at 620 nm
(§3) The percent activity was calculated as follows:
(§4) Percent Activity=FRETsample-FRETnegFRETp-FRETneg×100%
(§5) where FRETsample is the sample FRET, FRETneg is the negative control FRET, and FRETp is the positive control FRET.

[2] = molecular target: T2, BCL-xL (Homo sapiens, UniProt Q07817); assay: Cell-free TR-FRET inhibition of BCL-xL binding to its peptide ligand; conditions: 3 h at room temperature, 0.25-1000 nM, n = 4
T2 construct: His; purchased BPS Biosciences 50223
Procedure: as §1, §2, §3, §4, §5

[3] = system: THP-1 cells; assay: Apoptosis detection, Annexin V-FITC/PI flow cytometry; type: cell-based, human; conditions: THP-1, Venetoclax 0.8 µM, 48 h
Procedure: (§6) Cell apoptosis was measured following the manufacturer's instructions for the Annexin V-FITC kit (Elabscience, E-CK-A211-100). 1 × 10⁵ cells were co-cultured with varying concentrations of peptides or Venetoclax in 24-well plates for 48 hours. After incubation, the cells were collected by centrifugation, washed with PBS, and incubated with Annexin V-FITC and PI staining solution for 15 minutes under light-protected conditions. Apoptosis was then identified and analyzed using a flow cytometer (Beckman CytoFLEX, USA)[18].

[4] = system: U-937 cells; assay: as above; type: cell-based, human; conditions: U-937, Venetoclax 8 µM, 48 h
Procedure: as §6

[5] = system: THP-1 luciferase-transplanted xenografts; assay: AML mouse model, THP-1 luciferase xenograft
Procedure: To establish the AML mouse model, the animals were intravenously (IV) injected with luciferase-transfected THP-1 cells (THP-1 luciferase; 1 × 10⁶ cells/200 μL). The mice were randomly assigned to one of five experimental groups. […] Venetoclax was formulated for oral administration in a solution comprising 60% phosal 50 propylene glycol (PG), 30% polyethylene glycol (PEG) 400, and 10% ethanol, provided by MedChemExpress[30]. Before administration, both Venetoclax and BH3 peptide stock solutions were freshly diluted to working concentrations with sterile normal saline. The mice were anesthetized and administered 200 µL of a 15 mg/mL luciferase substrate, D-luciferin potassium salt (Beyotime Biotech, ST196-500mg), intraperitoneally. The progression of AML dissemination in mice was monitored until the day of euthanasia using an in vivo optical imaging system (Tanon ABL-X6; Tanon, Shanghai, China). The results were expressed as total flux (photons/s; radiance photons) ± standard deviation (SD) in both in vivo and ex vivo studies. The extent of the leukemia burden was determined by flow cytometry of peripheral blood human CD45+ cells. During the third and fourth weeks of the study, blood was collected from the orbital sinuses of mice in each group. […] Flow cytometry was employed to ascertain the expression of hCD45 in PBMCs. […] Following the completion of the designated treatment period, five mice from each group were randomly selected and euthanized by CO₂ asphyxiation. […] The bone marrow (from the tibia and femur), spleen, and liver were minced and made into single-cell suspensions in PBS, followed by red blood cell lysis. The cells were then stained with hCD45-PE antibody and analyzed by flow cytometry.
Liver, lung, kidney, spleen, and left femur tissues were formalin-fixed and paraffin-embedded. Bone tissue was decalcified with 10% EDTA decalcification solution prior to paraffin embedding. Paraffin blocks were then sectioned at 2-4 μm thickness and mounted on microscope slides. Tissue sections were deparaffinized and rehydrated using 100% xylene and ethanol solutions of decreasing concentrations.

[6] = system: AML cells (THP-1); assay: CCK-8 cytotoxicity for selectivity, 24 h; type: cell-based; conditions: Homo sapiens; THP-1, CCK-8, 24-hour incubation, n = 5
Procedure: (§7) The IC50 values of peptide drugs were determined in the experiments using the CCK-8 assay after a 24-hour incubation. The human acute leukemia cell line THP-1 was used as the leukemia cell model, while normal HSCs served as the control group. Higher SI values indicate greater selectivity of the peptide for leukemia cells over normal cells.

[7] = system: HSCs (CD34+ hematopoietic stem cells from cord blood); assay: CCK-8 cytotoxicity for selectivity, 24 h; type: cell-based; conditions: Hematopoietic stem cell; human cord blood CD34+ HSCs, CCK-8, 24-hour incubation, n = 5; read-out: HSC IC50
Procedure: as §7

[8] = system: AML cells (THP-1) relative to HSCs; assay: Selectivity index calculation; type: cell-based, human; conditions: n = 5
Procedure: The selectivity index (SI) was calculated to assess the specificity of peptide drugs toward leukemia cells relative to normal human HSCs. The SI is defined as the ratio of the IC50 value for HSCs to the IC50 value for leukemia cell lines, as shown in the following formula:
SI=IC50HSCsIC50leukemia cells
as §7

T1 sequence (Q07820 whole entry): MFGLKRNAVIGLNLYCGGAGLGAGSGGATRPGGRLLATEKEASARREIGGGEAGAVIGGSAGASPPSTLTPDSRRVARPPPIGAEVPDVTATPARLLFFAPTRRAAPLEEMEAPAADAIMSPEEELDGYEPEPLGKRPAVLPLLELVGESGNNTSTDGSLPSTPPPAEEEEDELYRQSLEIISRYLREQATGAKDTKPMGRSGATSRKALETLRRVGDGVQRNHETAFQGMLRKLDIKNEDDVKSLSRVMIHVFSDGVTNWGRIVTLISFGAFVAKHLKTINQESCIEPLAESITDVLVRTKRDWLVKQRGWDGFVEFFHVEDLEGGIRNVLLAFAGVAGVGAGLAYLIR
T2 sequence (Q07817 whole entry): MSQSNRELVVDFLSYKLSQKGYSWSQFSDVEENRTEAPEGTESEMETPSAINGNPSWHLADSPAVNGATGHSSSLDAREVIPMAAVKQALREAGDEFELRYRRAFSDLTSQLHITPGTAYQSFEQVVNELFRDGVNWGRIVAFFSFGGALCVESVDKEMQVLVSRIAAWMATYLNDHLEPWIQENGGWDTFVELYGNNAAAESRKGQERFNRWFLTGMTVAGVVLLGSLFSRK

IC50 [1] [nM]	IC50 [2] [nM]	SMILES	also measured
25.4	58.5	CC[C@H](C)[C@H](NC(=O)[C@H](CCCNC(=N)N)NC(=O)[C@H](CCCNC(=N)N)NC(=O)[C@H](CC(C)C)NC(=O)[C@H](CCC(=O)O)NC(=O)[C@H](CCC(N)=O)NC(=O)[C@H](C)NC(=O)[C@@H](NC(=O)[C@H](Cc1c[nH]c2ccccc12)NC(=O)[C@@H](NC(=O)[C@H](CCC(=O)O)NC(=O)[C@@H]1CCCN1)[C@@H](C)CC)C1CCCCC1)C(=O)NCC(=O)N[C@@H](CC(=O)O)C(=O)N[C@@H](CCC(=O)O)C(=O)N[C@@H](Cc1ccc(C)cc1)C(=O)N[C@@H](CC(N)=O)C(=O)N[C@@H](C)C(=O)N[C@@H](Cc1ccc(O)cc1)C(=O)N[C@@H](Cc1ccc(O)cc1)C(=O)N[C@@H](C)C(N)=O [D] (H-PEIW[Chg]AQELRRIGDE[Phe(4-Me)]NAYYA-NH2)	–
–	–	CC1(C)CCC(CN2CCN(c3ccc(C(=O)NS(=O)(=O)c4ccc(NCC5CCOCC5)c([N+](=O)[O-])c4)c(Oc4cnc5[nH]ccc5c4)c3)CC2)=C(c2ccc(Cl)cc2)C1 [Venetoclax]	Apoptosis [3]: 47.3%; Apoptosis [4]: 49.3%; Average body weight at study end ([5]; 30 days, same regimens, n = 12, Vehicle ≈19 g): ≈ 20 g; Bioluminescence (tumor burden) over 30 days ([5]; Venetoclax 25 mg kg−1 p.o., TAT-I or vMIP-II-TAT-I 1.5 µmol kg−1 i.v., Combination both, every 2 days, n = 5): minimal therapeutic efficacy; Median survival ([5]; Venetoclax 25 mg kg−1 p.o., TAT-I or vMIP-II-TAT-I 1.5 µmol kg−1 i.v., Combination both, every 2 days, n = 7, Vehicle 35 days): 37 days; hCD45+ cells in PBMCs ([5]; week 3, flow cytometry, n = 5, Vehicle ≈7%): ≈ 5%
9.77	30.8	CC[C@H](C)[C@H](NC(=O)[C@H](CCCNC(=N)N)NC(=O)[C@H](CCCNC(=N)N)NC(=O)[C@H](CC(C)C)NC(=O)[C@H](CCC(=O)O)NC(=O)[C@H](CCC(N)=O)NC(=O)[C@H](C)NC(=O)[C@@H](NC(=O)[C@H](Cc1c[nH]c2ccccc12)NC(=O)[C@@H](NC(=O)[C@H](CCC(=O)O)NC(=O)[C@@H]1CCCN1)[C@@H](C)CC)C1CCCCC1)C(=O)NCC(=O)N[C@@H](CC(=O)O)C(=O)N[C@@H](CCC(=O)O)C(=O)N[C@@H](Cc1ccccc1)C(=O)N[C@@H](CC(N)=O)C(=O)N[C@@H](C)C(=O)N[C@@H](Cc1ccc(O)cc1)C(=O)N[C@@H](Cc1ccc(O)cc1)C(=O)N[C@@H](C)C(N)=O [F] (H-PEIW[Chg]AQELRRIGDEFNAYYA-NH2)	–
48.9	278	CC[C@H](C)[C@H](NC(=O)[C@H](CCCNC(=N)N)NC(=O)[C@H](CCCNC(=N)N)NC(=O)[C@H](CC(C)C)NC(=O)[C@H](CCC(=O)O)NC(=O)[C@H](CCC(N)=O)NC(=O)[C@H](C)NC(=O)[C@@H](NC(=O)[C@H](Cc1c[nH]c2ccccc12)NC(=O)[C@H](CCS(C)(=O)=O)NC(=O)[C@H](CCC(=O)O)NC(=O)[C@@H]1CCCN1)C1CCCCC1)C(=O)NCC(=O)N[C@@H](CC(=O)O)C(=O)N[C@@H](CCC(=O)O)C(=O)N[C@@H](Cc1ccc(C)cc1)C(=O)N[C@@H](CC(N)=O)C(=O)N[C@@H](C)C(=O)N[C@@H](Cc1ccc(O)cc1)C(=O)N[C@@H](Cc1ccc(O)cc1)C(=O)N[C@@H](C)C(N)=O [C] (H-PE[Met(O2)]W[Chg]AQELRRIGDE[Phe(4-Me)]NAYYA-NH2)	–
–	–	Cc1cc2c(C(C)C)c(O)c(O)c(C=O)c2c(O)c1-c1c(C)cc2c(C(C)C)c(O)c(O)c(C=O)c2c1O [AT-101, (R)-(-)-Gossypol]	IC50 [6]: 18.9 µM; IC50 [7]: 67.7 µM; Selectivity index (SI) combined with Venetoclax ([8]; IC50 HSCs / IC50 THP-1, in combination with Venetoclax (concentration not given)): 3.85; Selectivity index (SI) ([8]; IC50 HSCs / IC50 leukemia cells (THP-1), single agent): 3.56

SMILES	IC50 [1] [nM]	IC50 [2] [nM]	also measured
CC[C@H](C)[C@H](NC(=O)[C@H](CCCNC(=N)N)NC(=O)[C@H](CCCNC(=N)N)NC(=O)[C@H](CC(C)C)NC(=O)[C@H](CCC(=O)O)NC(=O)[C@H](CCC(N)=O)NC(=O)[C@H](C)NC(=O)[C@@H](NC(=O)[C@H](Cc1c[nH]c2ccccc12)NC(=O)[C@H](CCS(C)(=O)=O)NC(=O)[C@H](Cc1ccc(C(=O)c2ccccc2)cc1)NC(=O)[C@@H]1CCCN1)[C@@H](C)CC)C(=O)NCC(=O)N[C@@H](CC(=O)O)C(=O)N[C@@H](CCC(=O)O)C(=O)N[C@@H](Cc1ccc(C)cc1)C(=O)N[C@@H](CC(N)=O)C(=O)N[C@@H](C)C(=O)N[C@@H](Cc1ccc(O)cc1)C(=O)N[C@@H](Cc1ccc(O)cc1)C(=O)N[C@@H](C)C(N)=O [G] (H-P[Bpa][Met(O2)]WIAQELRRIGDE[Phe(4-Me)]NAYYA-NH2)	206	565	–
CC[C@H](C)[C@H](NC(=O)[C@H](CCCNC(=N)N)NC(=O)[C@H](CCCNC(=N)N)NC(=O)[C@H](CC(C)C)NC(=O)[C@H](CCC(=O)O)NC(=O)[C@H](CCC(N)=O)NC(=O)[C@H](C)NC(=O)[C@@H](NC(=O)[C@H](Cc1c[nH]c2ccccc12)NC(=O)[C@H](CCS(C)(=O)=O)NC(=O)[C@H](Cc1ccc(C(=O)c2ccccc2)cc1)NC(=O)[C@@H]1CCCN1)C1CCCCC1)C(=O)NCC(=O)N[C@@H](CC(=O)O)C(=O)N[C@@H](CCC(=O)O)C(=O)N[C@@H](Cc1ccc(C)cc1)C(=O)N[C@@H](CC(N)=O)C(=O)N[C@@H](C)C(=O)N[C@@H](Cc1ccc(O)cc1)C(=O)N[C@@H](Cc1ccc(O)cc1)C(=O)N[C@@H](C)C(N)=O [B] (H-P[Bpa][Met(O2)]W[Chg]AQELRRIGDE[Phe(4-Me)]NAYYA-NH2)	122	412	–
